# Data as given in paper PMC10415144, “Structural insights into CodY activation and DNA recognition” (Nucleic Acids Research, 2023).
# Columns and labels:
# EfCodY [1] = target: T1, EfCodY (Enterococcus faecalis, UniProt Q834K5); test: bio-layer interferometry, reduction of Leu-activated binding to hutP operator DNA; format: biochemical; conditions: 2 mM GTP with 10 mM Leu; pH 8, 2 mM MgCl2, 25 °C; negative effect, binding to protein only presumed
# T1 construct: gene codY; full-length; expressed in E. coli BL21(DE3)pLysS; N-terminal His6-tag cut with TEV protease, Gly-Ala remnant before start Met; two dimers on 30-bp DNA
# T1 sequence (Q834K5 entry or part of it): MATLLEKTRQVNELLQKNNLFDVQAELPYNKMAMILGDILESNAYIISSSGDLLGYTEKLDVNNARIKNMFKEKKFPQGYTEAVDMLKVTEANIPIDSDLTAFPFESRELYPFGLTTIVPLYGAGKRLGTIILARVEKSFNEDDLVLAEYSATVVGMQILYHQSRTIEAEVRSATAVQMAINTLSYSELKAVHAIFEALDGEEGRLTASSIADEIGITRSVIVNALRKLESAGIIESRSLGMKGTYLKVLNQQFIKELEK
# SaCodY [2] = target: T2, SaCodY (Staphylococcus aureus, UniProt Q2FHI3); test: X-ray crystal structure of complex; format: binding
# T2 construct: gene codY; full-length; expressed in E. coli BL21(DE3)pLysS; N-terminal His6-tag cut with TEV protease, Gly-Ala remnant before start Met
# T2 sequence (Q2FHI3 whole entry): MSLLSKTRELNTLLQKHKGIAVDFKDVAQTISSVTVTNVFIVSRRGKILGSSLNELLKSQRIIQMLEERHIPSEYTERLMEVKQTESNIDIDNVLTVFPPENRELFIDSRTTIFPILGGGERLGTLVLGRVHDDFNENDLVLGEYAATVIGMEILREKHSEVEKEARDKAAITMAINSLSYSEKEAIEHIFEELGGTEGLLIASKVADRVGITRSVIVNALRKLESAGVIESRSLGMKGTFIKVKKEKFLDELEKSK
# EfCodY [3] = target: T1, EfCodY; test: X-ray crystal structure of complex; format: binding; conditions: co-crystal with 30-bp DNA; 4 mM Leu; GAF domain BCAA site of protomers A and B only
# SaCodY [4] = target: T2, SaCodY; test: bio-layer interferometry, activation of binding to hutP operator DNA; format: biochemical; conditions: 10 mM Leu with 2 mM GTP; pH 8, 2 mM MgCl2, 25 °C; allosteric activator
# EfCodY [5] = target: T1, EfCodY; test: Leu binding assay (method in supplement); conditions: compared with Lys74Ala mutant; details only in supplement
compound,measurement,setting,value
Nc1nc2c(ncn2[C@@H]2O[C@H](COP(=O)(O)OP(=O)(O)OP(=O)(O)O)[C@@H](O)[C@H]2O)c(=O)[nH]1 [GTP],"bio-layer interferometry, reduction of Leu-activated binding to hutP operator DN",EfCodY [1],"Together with Leu, GTP reduced activation, presumably by interacting with the protein"
same,X-ray crystal structure of complex,"SaCodY [2]; co-crystal with Ile and 30-bp DNA, 2 mM GTP, GAF domain near dimer interface, allosteric",The SaCodY-DNA complex was co-crystallized with Ile and GTP
CC(C)C[C@H](N)C(=O)O [Leu],X-ray crystal structure of complex,EfCodY [3],"EfCodY complex was co-crystallized in the presence of Leu, yet Leu bound only to protomers"
same,"bio-layer interferometry, activation of binding to hutP operator DNA",SaCodY [4],SaCodY was activated by Ile (and to a lesser extent by Leu) and GTP
same,affinity,EfCodY [5],the mutant binds Leu with comparable affinity to the wild type
CC[C@H](C)[C@H](N)C(=O)O [Ile],X-ray crystal structure of complex,"SaCodY [2]; co-crystal with GTP and 30-bp DNA, 20 mM Ile, GAF domain BCAA site",The SaCodY-DNA complex was co-crystallized with Ile and GTP
